# From patent US11976083B2, “Inhibitors of peptidylarginine deiminases” (Gilead Sciences, Inc., priority 2020, dated 2024)
# pIC50: −log10 of the molar value.
# Biological target: T1, human PAD4 (Homo sapiens, UniProt Q9UM07)
# T1 construct: human PAD4 (NM_012387), A2-P663, was PCR amplified; His-SUMO (N, cleaved yes); made in house; host or cells: E. coli BL21(DE3)
# Experiment: In vitro PAD4 BAEE biochemical assay
# Conditions: BAEE substrate 3 mM, 5 nM PAD4, 2 mM calcium chloride; geometric mean of multiple experiments
# Method in brief: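 Recombinant PAD4 (5 nM final) with 2 mM CaCl2 was preincubated with compound for 30 min at 25 °C in MOPS pH 7.6 buffer with DTT, then reacted with 3 mM BAEE for 2 h at 25 °C. Released ammonia was detected fluorimetrically with o-phthalaldehyde/DTT; IC50 from four-parameter fit, geometric mean of experiments.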
# T1 sequence (Q9UM07 2-663): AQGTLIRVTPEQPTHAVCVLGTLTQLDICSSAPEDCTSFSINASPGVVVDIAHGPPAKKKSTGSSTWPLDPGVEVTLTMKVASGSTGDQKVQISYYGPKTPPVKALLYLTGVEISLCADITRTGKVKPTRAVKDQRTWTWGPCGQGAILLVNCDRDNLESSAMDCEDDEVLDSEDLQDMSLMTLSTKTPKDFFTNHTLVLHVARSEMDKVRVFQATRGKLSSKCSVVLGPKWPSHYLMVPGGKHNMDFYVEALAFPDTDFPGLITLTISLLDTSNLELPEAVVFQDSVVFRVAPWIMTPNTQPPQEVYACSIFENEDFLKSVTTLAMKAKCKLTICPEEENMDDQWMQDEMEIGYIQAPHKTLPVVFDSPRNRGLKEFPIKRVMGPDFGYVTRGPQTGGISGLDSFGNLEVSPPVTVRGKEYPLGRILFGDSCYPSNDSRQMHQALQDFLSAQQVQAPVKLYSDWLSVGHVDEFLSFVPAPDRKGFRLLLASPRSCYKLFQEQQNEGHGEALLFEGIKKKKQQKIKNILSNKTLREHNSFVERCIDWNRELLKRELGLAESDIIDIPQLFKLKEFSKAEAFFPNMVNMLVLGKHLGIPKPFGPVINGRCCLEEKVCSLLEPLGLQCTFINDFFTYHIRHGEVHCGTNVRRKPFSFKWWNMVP
row,pIC50,Compound
1,7.39,"COCCn1c(-c2cc3ccc4nc3n2CCCCC[C@@H]2C[C@H]2C(=O)N[C@@H]4C)nc2cc(C(=O)N[C@H]3CNCC[C@@H]3F)cc(OC)c21 [Example 431, ~{N}-[(3~{S},4~{S})-4-fluoro-3-piperidyl]-7-methoxy-1-(2-methoxyethyl)-2-[(2~{R},5~{R},7~{R})-2-methyl-4-oxo-3,13,19-triazatetracyclo[11.5.2.0^{5,7}.0^{16,20}]icosa-1(19),14,16(20),17-tetraen-14-yl]benzimidazole-5-carboxamide]"
2,7.92,"COc1cc(C(=O)N2[C@H]3CC[C@@H]2[C@H](N)C3)cc2nc(-c3cc4ccc5nc4n3CCCCCn3nccc3C(=O)N[C@@H]5C)c(C)n12 [Example 32, (2~{R})-16-[7-[(1~{R},2~{R},4~{S})-2-amino-7-azabicyclo[2.2.1]heptane-7-carbonyl]-5-methoxy-3-methyl-imidazo[1,2-a]pyridin-2-yl]-2-methyl-3,8,9,15,21-pentazatetracyclo[13.5.2.0^{5,9}.0^{18,22}] docosa-1(21),5,7,16,18(22),19-hexaen-4-one]"
3,7.22,"Cc1cc2c(cc1C(=O)N[C@H]1CNCC[C@@H]1F)nc(-c1cc3ccc4nc3n1CC(F)(F)/C=C/C[C@H]1C[C@@H]1C(=O)N[C@@H]4C)n2C [Example 550, 2-[(2~{R},5~{S},7~ {S},9~{E})-11,11-difluoro-2-methyl-4-oxo-3,13,19-triazatetracyclo [11.5.2.0^{5,7}.0^{16,20}]icosa-1(19),9,14,16(20), 17-pentaen-14-yl]-~{N}-[(3~{S},4~{S})-4-fluoro-3-piperidyl]-1,6-dimethyl-benzimidazole-5-carboxamide]"
4,7.66,"C[C@H]1NC(=O)[C@@H]2C[C@H]2CCCCCn2c(-c3nc4cc(C(=O)N5C[C@H](N)[C@@H]6CC[C@H]5C6)ccc4n3C3CC3)cc3ccc1nc32 [Example 913, (2~{R},5~{R},7~{R})-14-[5-[(1~{S},4~{R},5~{R})-4-amino-2-azabicyclo[3.2.1]octane-2-carbonyl]-1-cyclopropyl-benzimidazol-2-yl]-2-methyl-3,13,19-triazatetracyclo [11.5.2.0^{5,7}.0^{16,20}] icosa-1(19),14,16(20),17-tetraen-4-one]"
5,8.22,"Cc1ccc2c(n1)CCCCCn1c(-c3nc4cc(C(=O)N5C[C@H](N)[C@@H]6CC[C@H]5C6)cc(F)c4n3C3CC3)cc3ccc(nc31)[C@@H](C)NC2=O [Example 670, (2~{R})-17-[5-[(1~{S),4~{R}, 5~{R})-4-amino-2-azabicyclo[3.2.1]octane-2-carbonyl]-1-cyclopropyl-7-fluoro-benzimidazol-2-yl]-2,8-dimethyl-3,9,16,22-tetrazatetracyclo[14.5.2.0^ {5,10).0^{19,23}]tricosa-1(22),5(10),6,8,17,19(23), 20-heptaen-4-one]"
6,7.13,"COc1cc(C(=O)N2C[C@@H](O)C[C@@H](N)[C@H]2C)cc2nc(-c3cc4ccc5nc4n3CCCCCCC(C)(C)C(=O)N[C@@H]5C)n(C)c12 [Example 800, (11~{R})-17-[5-[(2~{R},3~{R}, 5~{S})-3-amino-5-hydroxy-2-methyl-piperidine-1-carbonyl]-7-methoxy-1-methyl-benzimidazol-2-yl]-8,8,11-trimethyl-1,10,19-triazatricyclo [10.5.2.0^{15,18}]nonadeca-12,14,16,18-tetraen-9-one]"
7,7.14,"COc1cc(C(=O)N2C[C@H](N)[C@@H]3CC[C@H]2C3)cc2nc(-c3cc4ccc5nc4n3CCCCCOC(C)(C)C(=O)N[C@@H]5C)n(C3CC3)c12 [Example 905, (11~{R})-17-[5-[(1~{S},4~{R}, 5~{R})-4-amino-2-azabicyclo [3.2.1]octane-2-carbonyl]-1-cyclopropyl-7-methoxy-benzimidazol-2-yl]-8,8,11-trimethyl-7-oxa-1,10,19-triazatricyclo[10.5.2.0^{15,18}] nonadeca-12(19), 13,15(18),16-tetraen-9-one]"
8,7.16,"CC(C)n1c(-c2cc3ccc4nc3n2CCCCCc2nc(Cl)ccc2C(=O)N[C@@H]4C)nc2cc(C(=O)N3C[C@H](N)[C@@H]4CC[C@H]3C4)cc(F)c21 [Example 946, (2~{R})-17-[5-[(1~{S},4~ {R},5~{R})-4-amino-2-azabicyclo [3.2.1]octane-2-carbonyl]-7-fluoro-1-isopropyl-benzimidazol-2-yl]-8-chloro-2-methyl-3,9,16,22-tetrazatetracyclo[14.5.2.0^ {5,10}.0^{19,23}]tricosa-1(22),5(10),6,8,17,19(23),20-heptaen-4-one]"
9,7.62,"COc1cc(C(=O)N2[C@H]3CC[C@@H]2[C@H](N)C3)cc2nc(-c3cc4ccc5nc4n3C[C@H]3C[C@@H]3CCCCC(=O)N[C@@H]5C)n(C)c12 [Example 226, (3~{S},5~{S},12~{R})-18-[5-[(1~{R},2~{R},4~{S})-2-amino-7-azabicyclo[2.2.1]heptane-7-carbonyl]-7-methoxy-1-methyl-benzimidazol-2-yl]-12-methyl-1,11,20-triazatetracyclo[11.5.2.0^{3,5}.0^{16,19}] icosa-13(20),14,16(19),17-tetraen-10-one]"
10,7.40,"C[C@H]1NC(=O)[C@]2(C)C[C@H]2CCCCCn2c(-c3nc4cc(C(=O)N[C@H]5CNCC[C@@H]5F)c(F)cc4n3C3CC3)cc3ccc1nc32 [Example 544, 1-cyclopropyl-2-[(2~ {R},5~{R},7~{R})-2,5-dimethyl-4-oxo-3,13,19-triazatetracyclo [11.5.2.0^{5,7}.0^{16,20}]icosa-1(19),14,16(20), 17-tetraen-14-yl]-6-fluoro-~ {N}-[(3~{S},4~{S})-4-fluoro-3-piperidyl]benzimidazole-5-carboxamide]"
11,7.06,"COc1cc(C(=O)N2CCC[C@@H](N)C2)cc2nc(-c3cc4ccc5nc4n3C[C@@H]3C[C@H]3CO[C@@H](C)CC(=O)N[C@@H]5C)n(C)c12 [Example 267, (5~{R},8~{S},12~{R})-18-[5-[(3~{R})-3-aminopiperidine-1-carbonyl]-7-methoxy-1-methyl-benzimidazol-2-yl]-8,12-dimethyl-7-oxa-1,11,20-triazatetracyclo[11.5.2.0^{3,5}.0^{16,19}] icosa-13(20),14,16(19),17-tetraen-10-one]"
12,7.14,"COc1cc(C(=O)N2C[C@H](N)[C@@H]3CC[C@H]2C3)cc2nc(-c3cc4ccc5nc4n3CCCCCc3c(F)cc(F)cc3C(=O)N[C@@H]5C)n(C)c12 [Example 894, (2~{R})-17-[5-[(1~{S},4~ {R},5~{R})-4-amino-2-azabicyclo[3.2.1]octane-2-carbonyl]-7-methoxy-1-methyl-benzimidazol-2-yl]-7,9-difluoro-2-methyl-3,16,22-triazatetracyclo [14.5.2.0^{5,10).0^{19,23}] tricosa-1(22),5(10),6,8,17, 19(23),20-heptaen-4-one]"
13,7.55,"C[C@@H]1c2ccc3cc(-c4nc5cc(C(=O)N[C@H]6CNCC[C@@H]6F)c(F)cc5n4C4CC4)n(c3n2)CCCCCc2nc(Cl)ccc2C(=O)N1C [Example 750, 2-[(2~{R})-8-chloro-2,3-dimethyl-4-oxo-3,9,16,22-tetrazatetracyclo[14.5.2.0^ {5,10}.0^{19,23}]tricosa-1(22),5(10),6,8,17,19(23),20-heptaen-17-yl]-1-cyclopropyl-6-fluoro-~{N}-[(3~{S},4~ {S})-4-fluoro-3-piperidyl] benzimidazole-5-carboxamide]"
